In brackets after ≈: the same amount, converted by molar mass. Entries after “also recorded” stand apart in the source; their conditions may differ. Where two headings read alike, the source gives them in different places.

Data on 3 compounds can be found in US20090149453A1, “METHODS AND COMPOSITIONS FOR TREATING BACTERIAL INFECTIONS AND DISEASES ASSOCIATED THEREWITH” (ACTIVBIOTICS PHARMA LLC, priority 2002, published 2009).

Common to all, as to assay type: cell-based, Staphylococcus aureus
Test [1] concerns S. aureus 29213, stationary-phase. Description: Viability (cfu/ml) of stationary-phase cultures exposed to drugs. The settings on record: for killing effect against stationary phase cultures (summary, words): stationary phase (non-multiplying), alone or in combination; for log killing of stationary-phase cultures: summary, over 48 hours, single drugs or combination. The procedure: Cultures of S. aureus 29213 were grown to stationary-phase (an OD of 2.2 to 2.4 at 600 nm), then treated with Van and Rfz, either alone or in combination (FIG. 5; concentrations listed are in μg/ml). Rfz was used at 0.1 μg/ml, while Van was used at 15 μg/ml and 30 μg/ml, the latter concentration based on the fact that the starting culture was at a much higher density than was the log-phase cultures used in the experiments described above. It was assumed that more Van might be required to give a prolonged killing effect. In addition, one culture was treated with 15 μg/ml Van at the start of the experiment and then again 24 hours later. At 0, 24 and 48 hours, the number of viable cells was determined by plating on non-selective medium as described above.
The bacterial strain used in this study was “wild-type” S. aureus strain ATCC 29213. The strain was grown in Mueller Hinton II Broth (MHB; cationadjusted; VWR) and on Mueller Hinton Agar (MHA; VWR) plates that were made according to the manufacturer's instructions. Van (Calbiochem) was resuspended in sterile water (Fisher) at 10 mg/ml, while Rif (Calbiochem) and Rfz (ActivBiotics) were resuspended in 100% DMSO (J. T. Baker) at 1 mg/ml. All drugs were stored at −80° C. in single-use aliquots.
S. aureus strain ATCC 29213 was grown on an MHA plate at 35° C. for 18 hours. Colonies (3-5) were used to inoculate 50-100 ml of cation-adjusted MHB in a 500 ml Ehrlenmeyer flask and grown at 37° C. in a water bath shaker at 240 rpm.
(§1) For stationary phase studies, cultures were grown to an optical density of 2.2 to 2.4 at 600 nm, which represents approximately 5×10^9 cfu/ml; there would exist approximately 50 resistant mutants per nil in such a stationary phase culture. Drugs were added to the cultures to start the experiment, and then aliquots were removed at various time points, diluted in MHB if appropriate, and applied to 100 mm MHA and MHA plates containing Rif at 1 μg/ml. These plates were incubated at 35° C. for 18-24 hours, and then colonies manually counted to determine the number of cfu per nil of culture for the specific time-point/treatment. […] The Rif-containing plates were used to determine the number of Rfz-resistant bacteria present in the cultures for the specific time-point/treatment. Untreated control cultures were included in each experiment.

For test [2], the system named is S. aureus strain ATCC 29213, log-phase. Description: Viability (cfu/ml) of log-phase cultures exposed to drugs, plated on non-selective MHA. The settings on record: for decrease in cfu/ml: drug alone: Rif 0.1 μg/ml (initial drop), Van 10 μg/ml.
For test [3], the system named is S. aureus 29213, stationary-phase. Description: Rif-resistant cfu/ml in drug-treated stationary-phase cultures. The settings on record: Example 3, stationary-phase, Van or Rfz alone; Van 15 μg/ml plus Rfz 0.1 μg/ml. The procedure: The emergence of Rif/Rfz-resistant cells in cultures in these experiments was monitored as previously described; the results are shown in FIG. 6.
as §1

Another test deals with S. aureus 29213. Put plainly: MIC testing according to NCCLS standard. As to conditions: S. aureus 29213, NCCLS standard MIC testing.
Test [4] relates to S. aureus strain ATCC 29213, log-phase. The procedure:
In order to characterize the population of the cultures shown in FIG. 1, aliquots at the various time points/treatments were tested for the presence of Rif-resistant mutants.
Cultures were also examined as described above for the number of cfu/ml present that were resistant to Rif (FIG. 4).
(§2) For log-phase studies, cells were grown to an optical density of 0.5 at 600 nm, which represents a culture density of 5×10^8 colony forming units (cfu)/ml for S. aureus and deviates from densities typically used in time-kill type assays (1×10^7 cfu/ml). We chose to start at a higher density because this density is more likely to reflect in vivo bioburden than lower starting densities. In addition, this starting density is critical for monitoring the emergence of ansamycin-resistant mutants because it insures that there is a starting resident population of such resistant mutants at the start of the experiment. The 10^−8 frequency of mutants to Rfz leads to a theoretical number of five mutants per ml of culture at this cell density.
as §1

The test system of another test is S. aureus. Description: Frequency of resistant mutants. As to conditions: resistance to Rfz. How it is done: as §2

Take “3′-hydroxy-5′-(4-isobutyl-1-piperazinyl) benzoxazinorifamycin [Rfz]”: the decrease of cfu result in test [1] (Example 3, stationary-phase, Rfz 0.1 μg/ml alone) is recorded as “about 1 log”. Moreover, in test [1], the “killing effect against stationary phase cultures (summary, words)” value is recorded as “little or no killing effect” and the “log killing of stationary-phase cultures” value is reported as “approximately 1 log”. Also, in test [2] (Example 1, log-phase, 0.1 μg/ml alone, in 4 hours), the “drop in cfu/ml (logs killed)” value is “approximately 3.5 logs”. The “reduction of cfu/ml of the culture (cidality)” value in test [2] (Example 2, log-phase, Rfz 0.1 μg/ml (6.5× MIC) alone, within 6 hours) is listed as “approximately 3 logs”. Besides, the “cfu/ml level after regrowth” value in test [2] (Example 2, log-phase, Rfz alone 0.1 or 0.025 μg/ml, over 48 hours) is “approximately 10×10^8 cfu/ml”. Besides, the “reduction of cfu/ml at the lower concentration compared to the higher” value in test [2] (log-phase, Rfz 0.025 μg/ml (1.6× MIC) vs 0.1 μg/ml (6.5× MIC)) is on record as “just as effective; also recorded: as effective as 6.5× the MIC levels”. Also, the “emergence of Rif/Rfz-resistant colonies” value in test [3] is listed as “Resistant colonies did not appear”. The compound also yielded a minimum inhibitory concentration (MIC) with S. aureus 29213 of 0.015 µg/mL. For the same compound, in test [4] (Example 1, log-phase, 0.1 μg/ml alone, in 24 hours), the Rif-resistant cfu turned out to be 8 logs. Further, the “appearance of Rif-resistant cfu in log-phase cultures (summary, words)” value in test [4] (log-phase, Rfz single agent or co-treatment with Van) was “dramatic increase in Rif-resistant cfu/ml within 10 hours”. For the same compound, in the test on S. aureus, the frequency of mutants is reported as 10^−8.

As to `CO[C@H]1/C=C/O[C@@]2(C)Oc3c(C)c(O)c4c(O)c(c(/C=N/N5CCN(C)CC5)c(O)c4c3C2=O)NC(=O)/C(C)=C\C=C\[C@H](C)[C@H](O)[C@@H](C)[C@@H](O)[C@@H](C)[C@H](OC(C)=O)[C@@H]1C` [Rif, rifampicin, reference compound], in test [2] (Example 1, log-phase), the decrease in cfu/ml is reported as roughly 2.5 log. Also, the MIC in the test on S. aureus 29213 (Staphylococcus aureus, read-out: MIC) was 0.015 µg/mL (≈ 0.0182 µM). For the same compound, in test [4], the Rif-resistant cfu was determined as 8 logs.

In the case of `CN[C@H](CC(C)C)C(=O)N[C@H]1C(=O)N[C@@H](CC(N)=O)C(=O)N[C@H]2C(=O)N[C@H]3C(=O)N[C@H](C(=O)N[C@H](C(=O)O)c4cc(O)cc(O)c4-c4cc3ccc4O)[C@H](O)c3ccc(c(Cl)c3)Oc3cc2cc(c3O[C@@H]2O[C@H](CO)[C@@H](O)[C@H](O)[C@H]2O[C@H]2C[C@](C)(N)[C@H](O)[C@H](C)O2)Oc2ccc(cc2Cl)[C@H]1O` [Van, vancomycin, reference compound], the “viability of the cultures during treatment” value in test [1] (Example 3, stationary-phase, Van alone 15 or 30 μg/ml) is given as “did not decrease significantly”. Besides, in test [1], the “killing effect against stationary phase cultures (summary, words)” value is reported as “little or no killing effect” and the “log killing of stationary-phase cultures” value is recorded as “approximately 1 log”. Also, the decrease in cfu/ml in test [2] (Example 1, log-phase) was found to be 0.5 log. Further, the significant killing in test [2] (log-phase dense cultures, Van alone, after 48 hours of treatment) turned out to be 3 logs. Moreover, the “killing effect at increased concentration” value in test [2] (log-phase, vancomycin alone 15 μg/ml) was “sufficient for sustained killing”. For the same compound, the “emergence of Rif/Rfz-resistant colonies” value in test [3] was “Resistant colonies did not appear”. For the same compound, the “emergence of Rif-resistant cells” value in test [4] (Example 1, log-phase, Van 10 μg/ml alone or with Rif/Rfz 0.1 μg/ml) was “little or no increase in the number of Rif-resistant cells”.

As usually defined, the MIC is the smallest concentration in the dilution series that meets the test's criterion for growth inhibition.
